The results in this text go back to US20210214354A1, “IMIDAZOQUINOLINE COMPOUNDS AND USES THEREOF” (Birdie Biopharmaceuticals, Inc., priority 2018, published 2021).

A word on the AUC(0-inf): it is total exposure, with the tail of the curve extrapolated. What is called AUC(0-t) is the area under the concentration-time curve up to a stated or last time point. Low values mean low exposure, high ones high exposure. The term MRT last denotes a mean duration of stay, worked out from the concentration-time curve. As usually defined, the Vd is a proportionality between amount in the body and measured concentration, not a real space. Higher therefore signals extensive tissue distribution. One may read the clearance as the volume of plasma or blood freed of the substance per unit of time. Read a high clearance as efficient removal. As a reminder, the half-life is the time needed for the level to fall by half in the phase considered. Higher therefore signals slow loss. In general, EC50 refers to the concentration giving half of the maximal effect.

For data set [1] the following is noted: both, Sprague-Dawley (SD), rat, in vivo, iv, 0.08 mg/kg.
Description: (§2) SPF SD rats were purchased from BioLASCO Taiwan Co. Ltd. Animals were randomly assigned to five groups with 3 males and 3 females in each group before dosing. The body weight variation of animals used were in an interval within ±20 percent of the mean weight for each gender.
(§3) Blood samples (200-350 μL/time point) were obtained through tail vein at pre-dose and 2 min, 5 min, 15 min, 30 min, 1 hr, 2 hr, 4 hr, 6 hr, 8 hr, 12 hr and 24 hr post dosing. The blood samples were collected into tubes containing K2EDTA and maintained on ice no more than 30 minutes, then centrifuged (1500-1750 xg, 15 min, 2-8° C.) for plasma harvest.
(§4) The study samples were prepared and analyzed in parallel using liquid chromatography-tandem mass spectrometry. In pharmacokinetics evaluation following the determined concentrations in rat plasma, pharmacokinetic parameters were calculated using WinNonlin (Pharsight Corporation, version 6.3) with non-compartmental methods.
The nature of another data set: in vivo. To be noted: both, Sprague-Dawley (SD), rat, iv, 0.08 mg/kg.
A short description of data set [2]: TLR7/8 agonist PK study in SD rats (i.v.). To be noted: 0.08 mg/kg, plasma; for MTRinf: SD rats, i.v.; for AUC(0-inf) / AUC(0-t) / C0 / MRT last / Vd / clearance / half-life: both, Sprague-Dawley (SD), rat, iv.
Description: as §2, §3, §4
For another data set, the target named is T1, hTLR8 (Homo sapiens, UniProt Q9NR97).
T1 construct: expressed in transfected cells; host or cells: HEK-Blue hTLR8 cells (HEK293-derived SEAP reporter line; own knowledge: commercial line stably transfected with the human TLR8 gene)
T1 sequence (Q9NR97 27-1041): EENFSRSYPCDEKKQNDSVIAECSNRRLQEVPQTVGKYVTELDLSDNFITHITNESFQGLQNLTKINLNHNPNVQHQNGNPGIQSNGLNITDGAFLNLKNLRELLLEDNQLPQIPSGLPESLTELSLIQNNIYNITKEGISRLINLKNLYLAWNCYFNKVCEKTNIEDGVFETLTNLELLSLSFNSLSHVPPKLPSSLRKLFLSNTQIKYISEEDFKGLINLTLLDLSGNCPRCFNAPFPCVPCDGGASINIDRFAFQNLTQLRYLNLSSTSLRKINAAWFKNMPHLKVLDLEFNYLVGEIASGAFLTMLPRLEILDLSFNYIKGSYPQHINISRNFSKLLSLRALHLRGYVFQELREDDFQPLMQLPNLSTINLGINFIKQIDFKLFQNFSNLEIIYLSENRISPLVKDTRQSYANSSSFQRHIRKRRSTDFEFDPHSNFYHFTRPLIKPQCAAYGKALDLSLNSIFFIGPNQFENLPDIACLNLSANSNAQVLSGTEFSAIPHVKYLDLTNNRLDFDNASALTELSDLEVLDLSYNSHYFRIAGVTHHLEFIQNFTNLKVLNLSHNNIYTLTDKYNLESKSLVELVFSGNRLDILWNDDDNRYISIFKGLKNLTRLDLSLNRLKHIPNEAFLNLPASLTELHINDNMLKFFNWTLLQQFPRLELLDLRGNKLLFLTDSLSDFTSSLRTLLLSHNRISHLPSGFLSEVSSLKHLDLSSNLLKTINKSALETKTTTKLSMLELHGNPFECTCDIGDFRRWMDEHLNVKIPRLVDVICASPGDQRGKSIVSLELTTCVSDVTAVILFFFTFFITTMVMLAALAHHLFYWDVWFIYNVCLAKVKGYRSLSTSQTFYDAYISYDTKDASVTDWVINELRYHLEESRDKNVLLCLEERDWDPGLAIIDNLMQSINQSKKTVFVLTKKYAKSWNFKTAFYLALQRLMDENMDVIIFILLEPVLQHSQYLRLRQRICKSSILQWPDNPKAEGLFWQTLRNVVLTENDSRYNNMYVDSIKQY
As to the kind of experiment: TLR7/8 agonist potency assay in HEK-Blue hTLR8 cells (SEAP reporter). It is filed as cell-based. The following applies: about 16 hrs incubation, SEAP at 635 nm, read-out: TLR8 Agonistic EC50 (converted). The protocol: HEK-Blue hTLR8 cells can serve to measure the bioactivity of TLR8 through the secretion of embryonic alkaline phosphatase (SEAP) upon NF-κB activation following TLR8 stimulation. Water was used as negative control. After about 16 hrs incubation at 37° C. in 5% CO2, the SEAP was determined by using a spectrophotometer at 635 nm.
(§1) The dose-response curves were fit with four parameter logistic curve (SigmaPlot, version 9.0).

A further data set deals with T2, hTLR7 (Homo sapiens, UniProt Q9NYK1).
T2 construct: expressed in transfected cells; host or cells: HEK-Blue hTLR7 cells (HEK293-derived SEAP reporter line; own knowledge: commercial line stably transfected with the human TLR7 gene)
T2 sequence (Q9NYK1 27-1049): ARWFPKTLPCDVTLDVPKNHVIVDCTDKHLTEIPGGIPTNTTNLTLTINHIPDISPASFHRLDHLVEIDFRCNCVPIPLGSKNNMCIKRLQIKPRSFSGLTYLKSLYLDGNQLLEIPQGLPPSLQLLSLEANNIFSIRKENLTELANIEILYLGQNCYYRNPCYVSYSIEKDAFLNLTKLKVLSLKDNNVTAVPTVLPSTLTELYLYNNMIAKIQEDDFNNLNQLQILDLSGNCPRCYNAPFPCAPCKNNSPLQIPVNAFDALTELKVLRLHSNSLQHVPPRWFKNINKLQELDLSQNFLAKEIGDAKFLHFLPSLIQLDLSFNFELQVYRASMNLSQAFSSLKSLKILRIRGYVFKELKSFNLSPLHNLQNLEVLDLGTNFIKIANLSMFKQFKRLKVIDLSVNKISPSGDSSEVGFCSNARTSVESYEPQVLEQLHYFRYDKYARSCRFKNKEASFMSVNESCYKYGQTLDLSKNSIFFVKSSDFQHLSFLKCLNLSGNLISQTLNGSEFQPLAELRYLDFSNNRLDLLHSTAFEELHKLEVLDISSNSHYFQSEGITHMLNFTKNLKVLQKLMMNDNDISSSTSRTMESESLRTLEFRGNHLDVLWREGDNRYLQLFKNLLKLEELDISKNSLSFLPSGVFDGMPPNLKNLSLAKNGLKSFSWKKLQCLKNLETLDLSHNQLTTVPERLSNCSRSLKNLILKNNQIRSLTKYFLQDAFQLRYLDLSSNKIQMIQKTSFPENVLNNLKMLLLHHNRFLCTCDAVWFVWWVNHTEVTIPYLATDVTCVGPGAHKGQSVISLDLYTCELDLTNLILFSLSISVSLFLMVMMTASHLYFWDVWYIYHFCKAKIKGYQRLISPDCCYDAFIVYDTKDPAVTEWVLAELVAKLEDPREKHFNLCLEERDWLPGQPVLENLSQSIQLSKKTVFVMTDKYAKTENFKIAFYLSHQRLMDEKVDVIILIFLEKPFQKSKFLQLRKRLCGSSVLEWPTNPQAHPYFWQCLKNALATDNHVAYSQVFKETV
Description: TLR7/8 agonist potency assay in HEK-Blue hTLR7 cells (SEAP reporter). To be noted: about 16 hrs incubation, SEAP at 635 nm; for EC50: read-out: TLR7 Agonistic EC50 (converted). It is filed as cell-based. The protocol: HEK-Blue TLR7 cells can serve to measure the bioactivity of TLR7 through the secretion of embryonic alkalinephosphatase (SEAP) upon NF-κB activation following TLR7 stimulation. Water was used as negative control. After about 16 hrs incubation at 37° C. in 5% CO2, the SEAP was determined by using a spectrophotometer at 635 nm.
as §1

Each structure is given as a SMILES string. Read-outs that look alike come from different tables or passages of the source.

Description for in vivo: as §2, §3, §4

Compound `CCOCc1nc2c(N)nc3ccccc3c2n1CC(C)(C)O` [Resiquimod] showed an MTRinf in data set [1] of 3.87 ± 1.20 h. In “in vivo”, this compound registered a total exposure AUC(0-inf) of 66.2 ± 4.81 ng·h/mL, an exposure AUC(0-t) of 62.5 ± 4.49 ng·h/mL, a C0 of 258 ± 47.6 ng/mL and a mean residence time (MRT last) of 1.87 ± 0.16 h. Besides, in “in vivo”, the volume of distribution (Vd) turned out to be 4.67 L/kg, the clearance is 21.6 mL/min/kg and the half-life is 8.46 ± 1.72 h.

For `CCS(=O)(=O)Cc1nc2c(N)nc3ccccc3c2n1CC(C)(C)O` [Compound 6], in data set [2], the MTRinf turned out to be 1.71 ± 0.22 h, the AUC(0-inf) amounted to 82.8 ± 8.29 ng·h/mL, the AUC(0-t) was found to be 81.6 ± 8.49 ng·h/mL and the C0 is 224 ± 53.9 ng/mL. Also, in data set [2], the mean residence time (MRT last) was 1.28 ± 0.19 h, the Vd came to 1.82 L/kg, the clearance was 17.1 mL/min/kg and the half-life was 6.46 ± 1.01 h.

With `CC(C)(O)Cn1c(COCC(F)(F)F)nc2c(N)nc3ccccc3c21` [Compound 2], the EC50 at hTLR8 is 1600 nM; at hTLR7, 98.3 nM.

In data set [2], `CCSCc1nc2c(N)nc3ccccc3c2n1CC(C)(C)O` [Compound 4] yielded an MTRinf of 3.87 ± 1.20 h, an AUC(0-inf) of 66.2 ± 4.81 ng·h/mL, an AUC(0-t) of 62.5 ± 4.49 ng·h/mL and a C0 of 258 ± 47.6 ng/mL. In data set [2], the MRT last is 1.87 ± 0.16 h, the Vd was 4.67 L/kg, the clearance is 21.6 mL/min/kg and the half-life is 8.46 ± 1.72 h.

Consider `CCCCNc1nc(N)c2[nH]c(=O)n(Cc3ccc(C(=O)NCC(=O)O)cc3)c2n1` [CL264, reference compound], for which the “TLR7 Agonistic EC50” value on hTLR7 was determined as 0.2602 ± 0.0124 µg/mL.

For the compound `CC(C)(O)Cn1c(COC2CC2)nc2c(N)nc3ccccc3c21` [Compound 3], the concentration giving a half-maximal response (EC50) on hTLR8 is 1580 nM. In data set [2], this compound displayed an MTRinf of 4.90 ± 0.87 h, an AUC(0-inf) of 124 ± 9.96 ng·h/mL, an area under the curve AUC(0-t) of 118 ± 8.92 ng·h/mL and a C0 of 237 ± 44.2 ng/mL. In data set [2], the MRT last amounted to 3.15 ± 0.18 h, the Vd turned out to be 3.13 L/kg, the clearance was 11.9 mL/min/kg and the half-life is 7.53 ± 1.03 h. For the same compound, on hTLR7, the concentration for a half-maximal effect (EC50) was 124 nM.
